Measurements: patent publication US8022053B2, “Oral solid dosage forms containing a low dose of estradiol” (Bayer Schering Pharma Aktiengesellschaft, priority 2004, dated 2011)
Marks after values point to notes of the source that are not given here.

Tests used:
[1] = daily oral administration of 1 to 3 mg of estradiol; cited from earlier work
[2] = In vitro dissolution of micronised estradiol and estradiol/polyvinylpyrrolidone powder mixtures (USP apparatus 2, paddle); format: physicochemical; details: 900 ml purified water, 37° C., 50 rpm, powder corresponding to 100 μg estradiol hemihydrate
Method: The dissolution characteristics of micronised estradiol and mixtures of micronised estradiol and polyvinylpyrrolidone, respectively, were investigated in an in vitro dissolution test system. The dissolution tester was a USP apparatus 2 (paddle system) (See <711> of USP 27) using 900 ml of purified water temperated at 37° C. as the dissolution media and a rotation speed of 50 rpm. The estradiol and the mixtures in powdery form were placed into the dissolution vessels in an amount corresponding to 100 μg of micronised estradiol hemihydrate.

[3] = Bioavailability study, serum levels of estradiol after a single oral tablet; format: in vivo, healthy postmenopausal women; details: fasted, for an extended period of time
Method: A bioavailability study was conducted in order to determine the serum levels of estradiol after single administration of a tablet formulation identical to the one described in Example 2 containing 190 μg and 100 μg of micronised estradiol hemihydrate, respectively. The study design was open labelled, 3 periods, 3 treatments, cross-over design with a single administration of each treatment and two weeks' washout between each period. The study population were 24 healthy postmenopausal women, age 55-75. Fasted condition was held.
The full-drawn line refers to the mean serum levels of estradiol achieved by administering a single dose of 190 μg to the study population, and the dotted line refers to the mean serum levels of estradiol achieved by administering a single dose of 100 μg to the study population. The mean serum level of endogenous estradiol was 3-3.5 pg/ml.

| SMILES | Bioavailability [1] | Amount of estradiol (μg) dissolved after 5 min ([2]; 5 min) | Amount of estradiol (μg) dissolved after 10 min ([2]; 10 min) | Amount of estradiol (μg) dissolved after 20 min ([2]; 20 min) | Amount of estradiol (μg) dissolved after 30 min ([2]; 30 min) | Amount of estradiol (μg) dissolved after 60 min ([2]; 60 min) | Mean serum levels of estradiol ([3]; Example 2 tablet with 100 μg (printed 100 pg)) | Mean serum levels of estradiol ([3]; Example 2 tablet with 190 μg) |
| --- | --- | --- | --- | --- | --- | --- | --- | --- |
| C[C@]12CC[C@@H]3c4ccc(O)cc4CC[C@H]3[C@@H]1CC[C@@H]2O [estradiol] | 3-5% |  |  |  |  |  |  |  |
| C[C@]12CC[C@@H]3c4ccc(O)cc4CC[C@H]3[C@@H]1CC[C@@H]2O [micronised estradiol hemihydrate, estradiol hemihydrate] |  | <3* μg | <3* μg | <3* μg | <3* μg | <3 µg | 5 to 20 pg/mL | 5 to 20 pg/mL |
